Experimental data: ChEMBL document CHEMBL1140674, “Design and synthesis of bioactive adamantane spiro heterocycles” (Bioorg Med Chem Lett, 2007)

Tests used:
Trypanosoma brucei = assay: Antiparasitic activity against Trypanosoma brucei 221 blood stream form at pH 7.4; format: functional, organism-based
[1] = Cytotoxicity against MDCK cells assessed as changes in cell morphology; format: cell-based, Canis lupus familiaris; details: dog
Influenza A virus = assay: Antiviral activity against influenza A/Hong Kong/7/87 (H3N2) in MDCK cells assessed as inhibition of virus-induced cytopathic effect by MTS assay; format: functional, organism-based

In the case of `C1C2CC3CC1CC(C2)C31CN1` (centres undefined), the IC50 (Trypanosoma brucei) is reported as > 30 µM, the MCC [1] is reported as 25 µM and the EC50 (Influenza A virus; Influenza A virus, H3N2, MDCK) is reported as > 5 µM.

For `CN1CC12C1CC3CC(C1)CC2C3` (centres undefined), the MCC [1] was 23 µM and the EC50 (Influenza A virus; Influenza A virus, H3N2, MDCK) was > 4.5 µM.

`C1CC2(N1)C1CC3CC(C1)CC2C3` (centres undefined) showed an MCC [1] of 250 µM and an EC50 (Influenza A virus; Influenza A virus, H3N2, MDCK) of 0.36 µM.

For `C1CC2(CCN1)C1CC3CC(C1)CC2C3`, the IC50 (Trypanosoma brucei) was 5.28 µM and the IC90 (Trypanosoma brucei) was 9.99 µM.

In the case of `O=C1NC(=O)C2(C(=O)N1)C1CC3CC(C1)CC2C3`, the IC50 (Trypanosoma brucei) is reported as 20 µM.

Work on `C1C2CC3CC1CC(C2)C31CNC1` yielded an MCC [1] of 113 µM and an EC50 (Influenza A virus; Influenza A virus, H3N2, MDCK) of 0.33 µM.

In the case of `CN1CCC12C1CC3CC(C1)CC2C3` (centres undefined), the IC50 (Trypanosoma brucei) is reported as > 25 µM, the MCC [1] is reported as 50 µM and the EC50 (Influenza A virus; Influenza A virus, H3N2, MDCK) is reported as 0.59 µM.

In the case of `CN1CCC2(CC1)C1CC3CC(C1)CC2C3`, the IC50 (Trypanosoma brucei) is reported as > 20 µM.

Molecule `CN1CCC2(CC1)C1CC3CC(C1)CC2C3.Cl` has an MCC [1] of 4 µM and an EC50 (Influenza A virus; Influenza A virus, H3N2, MDCK) of 4.3 µM.

Molecule `C1CC2(CCN1)C1CC3CC(C1)CC2C3.Cl` has an MCC [1] of 17 µM and an EC50 (Influenza A virus; Influenza A virus, H3N2, MDCK) of 0.16 µM.

In the case of `NC12CC3CC(CC(C3)C1)C2` [AMANTADINE], the IC50 (Trypanosoma brucei) is reported as > 130 µM, the MCC [1] is reported as > 100 µM and the EC50 (Influenza A virus; Influenza A virus, H3N2, MDCK) is reported as 1.98 µM.

`NC(=O)c1ncn([C@@H]2O[C@H](CO)[C@@H](O)[C@H]2O)n1` [RIBAVIRIN] gave an MCC [1] of 20 µM and an EC50 (Influenza A virus; mdck) of 8.68 µM.

For `CC(N)C12CC3CC(CC(C3)C1)C2` (centres undefined) [RIMANTADINE], the IC50 (Trypanosoma brucei) was 7.04 µM, the IC90 (Trypanosoma brucei) was 14 µM and the MCC [1] was > 100 µM. It also gave an EC50 (Influenza A virus; Influenza A virus, H3N2, MDCK) of 0.362 µM.
